Drawing on patent publication US20040209776A1, “Azole derivatives useful as insecticide” (priority 2001, published 2004), this text covers mortality and melting point for two molecules.

One series has as its system Meloidogyne incognita. The experiment in a line: In vitro test against root knot nematodes suspended in liquid composition. The series is classed as in vivo. As to conditions: 12.5 ppm by weight, no SYNPERONIC NP8, read-out: Mi mortality (score). Here is the method: (§1) This Example illustrates the pesticidal/insecticidal properties of compounds of formula (I). The activities of individual compounds of formula (I) were determined using a variety of pests. The pests were treated with a liquid composition containing 500 parts per million (ppm) by weight of a compound of formula (I). Each composition was made by dissolving the compound in an acetone and ethanol (50:50 by volume) mixture and diluting the solution with water containing 0.05% by volume of a wetting agent, SYNPERONIC NP8, until the liquid composition contained the required concentration of the compound. SYNPERONIC is a registered trade mark.
Tests were also conducted against root knot nematodes (Meloidogyne incognita) using an in vitro test in which nematodes were suspended in a liquid composition which had been prepared as described above except that it contained a concentration of 12.5 ppm by weight of a compound of formula (I) and it contained no SYNPERONIC NP8.

For a further series, the system named is Plutella xylostella. The series is described as follows: Pest mortality test against diamond back moth. As to conditions: 120 h, 500 ppm by weight, mortality assessed usually between two and five days after treatment, read-out: Px mortality (score). The series is classed as in vivo. As for the experimental part: as §1
(§2) The test procedure adopted with regard to each pest was essentially the same and comprised supporting a number of the pests on a medium, which was usually a substrate, a host plant or a foodstuff on which the pests feed, and treating either or both the medium and the pests with a composition. Pest mortality was assessed usually between two and five days after treatment.
(§3) Similar tests were conducted against, independently, two-spotted spider mites (Tetranychus urticae), fruit flies (Drosophila melanogaster), tobacco budworms (Heliothis virescens), diamond back moth (Plutella xylostella) and corn root worm (Diabrotica balteata).

In the next series the test system is Myzus persicae. The series is described as follows: Pest mortality test against peach potato aphids, infested Chinese cabbage leaves sprayed. Format: in vivo. As to conditions: 72 h, 500 ppm by weight, sprayed on infested Chinese cabbage leaves, mortality assessed after three days, read-out: Mp mortality (score). As for the experimental part: as §1, §2
In each test against peach potato aphids (Myzus persicae), Chinese cabbage leaves were infested with aphids, the infested leaves were sprayed with a test composition and pest mortality was assessed after three days.

In the next series the test system is Diabrotica balteata. The experiment in a line: Pest mortality test against corn root worm. Format: in vivo. The settings on record: 120 h, 500 ppm by weight, mortality assessed usually between two and five days after treatment, read-out: Db mortality (score). As for the experimental part:
as §1, §2, §3

The next series relates to Drosophila melanogaster. The series is described as follows: Pest mortality test against fruit flies. The series is classed as in vivo. As to conditions: 120 h, 500 ppm by weight, mortality assessed usually between two and five days after treatment, read-out: Dm mortality (score). Here is the method: as §1, §2, §3
The subject of another series is Heliothis virescens. The experiment in a line: Pest mortality test against tobacco budworms. Format: in vivo. As to conditions: 120 h, 500 ppm by weight, mortality assessed usually between two and five days after treatment, read-out: Hv mortality (score). Here is the method: as §1, §2, §3

Usually mortality stands for the share of the test organisms that died. In the case of `CCc1nsc(NC(=O)C(C)c2ccc3oc(-c4c(F)cccc4Cl)nc3c2)c1Cl` (stereo not shown) [Compound 1, N-(4-chloro-3-ethylisothiazol-5-yl)-2-[2-(2-chloro-6-fluorophenyl)benzoxazol-5-yl]propionamide], the mortality at 12.5 ppm with Meloidogyne incognita was under 40%. Also, the mortality at 500 ppm in the series with Plutella xylostella, in the series on Myzus persicae, in the series on Diabrotica balteata, in the series on Drosophila melanogaster and in the series on Heliothis virescens was 80 to 100% in each case.
What is called melting point is the temperature, or range, at which the solid turns liquid. As to `Cc1nsc(NC(=O)C(C)c2ccc3oc(-c4cccc(Cl)c4Cl)nc3c2)c1Cl` (stereo not shown) [Compound 11, N-(4-chloro-3-methylisothiazol-5-yl)-2-[2-(2,3-dichlorophenyl)benzoxazol-5-yl]propionamide], the melting point lay within 158 to 161 °C.
